Experimental data taken from paper PMC4045134, “Discovery of Triterpenoids as Reversible Inhibitors of α/β-hydrolase Domain Containing 12 (ABHD12)” (PLoS ONE, 2014).

Legend:
Assay type in all cases: biochemical
[1] = biological target: T1, CB1R (Rattus norvegicus, UniProt P20272); experiment: [35S]GTPγS binding, CB1R agonist activity, rat cerebellar membranes; conditions: 10 µM
T1 construct: membranes prepared from brain tissue of 4-week-old male rodents were used; from tissue; host or cells: rat cerebellar membranes
T1 sequence (P20272 whole entry): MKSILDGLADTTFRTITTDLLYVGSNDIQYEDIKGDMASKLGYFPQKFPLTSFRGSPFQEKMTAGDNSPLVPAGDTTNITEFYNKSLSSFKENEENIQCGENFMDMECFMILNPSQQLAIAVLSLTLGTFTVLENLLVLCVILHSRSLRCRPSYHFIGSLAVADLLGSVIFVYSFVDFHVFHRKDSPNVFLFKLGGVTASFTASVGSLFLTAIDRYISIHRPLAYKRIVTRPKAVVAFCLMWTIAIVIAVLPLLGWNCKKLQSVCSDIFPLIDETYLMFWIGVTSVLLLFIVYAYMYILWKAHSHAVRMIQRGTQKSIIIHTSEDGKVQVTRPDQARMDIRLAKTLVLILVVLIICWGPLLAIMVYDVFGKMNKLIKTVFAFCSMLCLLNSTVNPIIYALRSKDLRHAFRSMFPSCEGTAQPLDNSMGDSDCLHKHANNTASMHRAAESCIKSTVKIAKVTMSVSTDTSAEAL
Experimental: (§1) The CB1 and CB2 receptor activity of the selected compounds (10 µM) were measured using the GTPγS binding assay according to the previously described methods, [33].
(§2) For ABPP experiments (Figure 6C) and cannabinoid receptor activity assays (Table S2), membranes prepared from brain tissue of 4-week-old male rodents were used. The animals were obtained from the National Laboratory Animal Centre, University of Eastern Finland. Approval for the harvesting of animal tissue was obtained from the local welfare officer of the University of Eastern Finland.

[2] = biological target: T2, hCB2R (Homo sapiens, UniProt P34972); experiment: [35S]GTPγS binding, CB2R agonist activity, hCB2R-CHO cell membranes; conditions: 10 µM
T2 construct: expressed in transfected cells; host or cells: CHO
T2 sequence (P34972 whole entry): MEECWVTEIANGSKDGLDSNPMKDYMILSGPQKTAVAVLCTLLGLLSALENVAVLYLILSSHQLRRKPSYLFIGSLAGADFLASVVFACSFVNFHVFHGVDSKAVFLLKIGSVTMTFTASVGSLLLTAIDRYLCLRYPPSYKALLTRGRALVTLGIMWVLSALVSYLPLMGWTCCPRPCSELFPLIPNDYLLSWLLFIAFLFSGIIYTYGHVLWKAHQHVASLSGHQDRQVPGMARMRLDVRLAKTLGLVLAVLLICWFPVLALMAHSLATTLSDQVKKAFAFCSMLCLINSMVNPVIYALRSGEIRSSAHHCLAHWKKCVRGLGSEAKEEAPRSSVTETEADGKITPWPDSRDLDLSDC

[3] = biological target: T1, CB1R; experiment: [35S]GTPγS binding, CB1R antagonist activity, rat cerebellar membranes; conditions: 10 µM
Experimental: as §1, §2

[4] = biological target: T3, hABHD12 (Homo sapiens, UniProt Q8N2K0); experiment: Reversibility testing, 40-fold dilution of enzyme-inhibitor complex; conditions: time points 10, 20, 30, 60 and 90 min
T3 construct: expressed in transfected cells; host or cells: HEK293 (transient)
T3 sequence (Q8N2K0 1-398): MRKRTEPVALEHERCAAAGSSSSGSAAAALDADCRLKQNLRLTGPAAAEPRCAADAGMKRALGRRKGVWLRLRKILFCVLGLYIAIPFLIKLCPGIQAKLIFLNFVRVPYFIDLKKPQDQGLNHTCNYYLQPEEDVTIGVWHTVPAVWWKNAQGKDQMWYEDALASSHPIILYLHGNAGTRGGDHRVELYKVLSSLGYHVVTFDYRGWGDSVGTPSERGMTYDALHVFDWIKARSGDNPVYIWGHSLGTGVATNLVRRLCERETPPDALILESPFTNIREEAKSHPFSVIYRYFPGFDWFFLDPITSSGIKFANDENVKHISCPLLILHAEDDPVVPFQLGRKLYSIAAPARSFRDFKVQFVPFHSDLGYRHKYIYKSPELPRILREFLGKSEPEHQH
Experimental: Reversibility testing was carried out as previously described. Briefly, DMSO/inhibitor (0.5 µl) was incubated together with hABHD12-HEK293 lysate (4.5 µl, 0.3 µg protein/well) in TEMN-BSA buffer for 30 min. After this, a 40-fold dilution of enzyme-inhibitor complex was brought about by addition of the substrate [1-AG, 12.5 µM final concentration, containing additionally 1% EtOH (v/v)] in 195 µl of glycerol assay mix and fluorescence was kinetically monitored at 10 min intervals for 90 min at RT.

[5] = biological target: T4, hMAGL (Homo sapiens, UniProt Q99685); experiment: Fluorescent glycerol assay in hMAGL-HEK293 lysates; conditions: 10 µM; read-out: hMAGL Remaining activity % control ± s.e.m (n=3)
T4 construct: expressed in transfected cells; host or cells: HEK293 (transient)
T4 sequence (Q99685 1-303): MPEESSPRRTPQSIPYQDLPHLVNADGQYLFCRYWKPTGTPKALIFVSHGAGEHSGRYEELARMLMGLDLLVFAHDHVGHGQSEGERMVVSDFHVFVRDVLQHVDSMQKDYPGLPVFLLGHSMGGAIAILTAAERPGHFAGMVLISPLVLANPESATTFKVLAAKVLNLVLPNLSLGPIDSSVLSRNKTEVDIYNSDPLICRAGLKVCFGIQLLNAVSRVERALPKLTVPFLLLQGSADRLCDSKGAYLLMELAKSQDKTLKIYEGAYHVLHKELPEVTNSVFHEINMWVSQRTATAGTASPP

[6] = biological target: T3, hABHD12; experiment: Fluorescent glycerol assay of 1-AG hydrolysis in hABHD12-HEK293 lysates; conditions: hABHD12-HEK293 lysates

CC1(C)CC[C@]2(C(=O)O)CC[C@]3(C)C(=CC[C@@H]4[C@@]5(C)C[C@@H](O)[C@H](O)C(C)(C)[C@@H]5CC[C@]43C)[C@@H]2C1 [Compound 8, Maslinic acid, reference compound]
CB1R agonist activity [35S]GTPγS binding % Basal (Mean (range), n=2) [1]: 93 (88-97) % Basal
CB2R agonist activity [35S]GTPγS binding % Basal (Mean (range), n=2) [2]: 114 (104-123) % Basal
CB1R antagonist activity [35S]GTPγS binding % HU210-evoked response (Mean (range), n=2) [3]: 99 (97-102) % HU210-evoked response
time-dependency of inhibitor potency (IC50) after 40-fold dilution [4]: time-dependent drop of inhibitor potency
remaining activity at 10 µM [5]: 95.6 ± 0.8%
IC50 ([6]; three independent experiments, read-out: -logIC50±s.e.m. (converted)): 1260 nM
Emax ([6]; read-out: max inhibition (converted)): 89%
